Tests used:
Type in all cases: in vivo
Conditions in all cases: 5 mg/kg oral gavage
MAGL = MAGL (Mus musculus (Mouse), UniProt O35678); assay: Mouse brain proteomes from inhibitor treated mice (oral gavage, sacrifice 4 h after administration, ABPP analysis)
Experimental: (§1) Preparation of Mouse Brain Proteomes from Inhibitor Treated Mice.
(§2) Inhibitors were administered to wild-type C57Bl/6J by oral gavage in a vehicle, e.g. PEG400/Ethanol/PBS (7/2/1). Each animal was sacrificed 4 h following administration and brain proteomes were prepared and analyzed according to previously established methods (See Niphakis, M. J., et al. (2011) ACS Chem. Neurosci. and Long, J. Z., et al. Nat. Chem. Biol. 5:37-44). Data from this assay is shown in Table 2 (% inhibition at 5 mg/kg).

FAAH = FAAH (Mus musculus (Mouse), UniProt O08914); assay: Mouse brain proteomes from inhibitor treated mice (oral gavage, sacrifice 4 h after administration, ABPP analysis), FAAH
Sequence of FAAH (O08914 whole entry): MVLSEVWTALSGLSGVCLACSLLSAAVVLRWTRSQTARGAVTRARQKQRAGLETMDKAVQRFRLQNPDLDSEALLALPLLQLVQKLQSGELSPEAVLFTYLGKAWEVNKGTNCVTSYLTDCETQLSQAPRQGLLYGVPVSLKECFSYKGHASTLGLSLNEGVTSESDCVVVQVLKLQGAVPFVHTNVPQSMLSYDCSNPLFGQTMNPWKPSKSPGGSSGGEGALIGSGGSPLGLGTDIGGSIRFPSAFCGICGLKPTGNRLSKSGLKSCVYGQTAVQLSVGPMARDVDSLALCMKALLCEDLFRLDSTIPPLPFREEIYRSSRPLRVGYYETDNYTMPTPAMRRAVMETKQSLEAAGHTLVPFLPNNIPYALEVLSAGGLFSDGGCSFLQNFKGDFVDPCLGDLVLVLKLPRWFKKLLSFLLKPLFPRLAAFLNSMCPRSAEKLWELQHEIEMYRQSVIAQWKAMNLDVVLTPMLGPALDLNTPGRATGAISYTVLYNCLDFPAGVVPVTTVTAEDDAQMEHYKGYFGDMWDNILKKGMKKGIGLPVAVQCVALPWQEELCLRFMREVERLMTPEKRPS
Experimental: as §1, §2

ABHD6 = ABHD6 (Mus musculus (Mouse), UniProt Q8R2Y0); assay: Mouse brain proteomes from inhibitor treated mice (oral gavage, sacrifice 4 h after administration, ABPP analysis), ABHD6
Sequence of ABHD6 (Q8R2Y0 whole entry): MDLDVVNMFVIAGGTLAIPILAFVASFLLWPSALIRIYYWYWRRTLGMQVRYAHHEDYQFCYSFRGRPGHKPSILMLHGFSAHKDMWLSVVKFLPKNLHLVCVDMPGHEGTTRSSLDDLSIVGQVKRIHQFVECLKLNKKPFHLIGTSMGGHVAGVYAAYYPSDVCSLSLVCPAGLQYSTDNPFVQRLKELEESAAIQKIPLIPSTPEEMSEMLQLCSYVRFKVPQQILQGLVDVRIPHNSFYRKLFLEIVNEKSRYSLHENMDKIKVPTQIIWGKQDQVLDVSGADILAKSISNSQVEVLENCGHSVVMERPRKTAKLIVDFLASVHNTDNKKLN
Experimental: as §1, §2

Sequence of MAGL (O35678 whole entry): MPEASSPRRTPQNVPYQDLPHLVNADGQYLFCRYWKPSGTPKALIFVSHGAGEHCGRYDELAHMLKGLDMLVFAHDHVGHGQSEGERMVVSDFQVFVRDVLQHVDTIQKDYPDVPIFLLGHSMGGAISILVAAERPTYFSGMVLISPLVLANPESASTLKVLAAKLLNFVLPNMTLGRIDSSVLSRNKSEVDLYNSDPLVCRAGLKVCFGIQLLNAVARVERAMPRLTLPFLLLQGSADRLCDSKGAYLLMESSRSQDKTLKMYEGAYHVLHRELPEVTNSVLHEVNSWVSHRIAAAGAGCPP

| Compound | MAGL % Inh 5 mg/kg (mouse) (MAGL) | FAAH % Inh 5 mg/kg (mouse) (FAAH) | ABHD6 % Inh 5 mg/kg (mouse) (ABHD6) |
| --- | --- | --- | --- |
| O=C(OC(C(F)(F)F)C(F)(F)F)N1CCC2(CCCN2Cc2ccc(Cl)cc2)CC1 [Example 62, 1,1,1,3,3,3-Hexafluoropropan-2-yl 1-(4-chlorobenzyl)-1,8-diazaspiro[4.5]decane-8-carboxylate] | ### (### is ≥ 75%) | – | – |
| O=C(O)C1CCN(c2cc(CN3CCCC34CCN(C(=O)OC(C(F)(F)F)C(F)(F)F)CC4)cc(C(F)(F)F)c2)CC1 [Example 123, 1-(3-((8-(((1,1,1,3,3,3-Hexafluoropropan-2-yl)oxy)carbonyl)-1,8-diazaspiro[4.5]decan-1-yl)methyl)-5-(trifluoromethyl)phenyl)piperidine-4-carboxylic acid] | ### (### is ≥ 75%) | # (# is < 25%) | – |
| COc1ccc(F)cc1CN1CCCC12CCN(C(=O)OC(C(F)(F)F)C(F)(F)F)CC2 [Example 8, 1,1,1,3,3,3-Hexafluoropropan-2-yl 1-(5-fluoro-2-methoxybenzyl)-1,8-diazaspiro[4.5]decane-8-carboxylate] | ### (### is ≥ 75%) | – | – |
| O=C(OC(C(F)(F)F)C(F)(F)F)N1CCC2(CCCN2Cc2cccc(N3CCCCC3)c2Cl)CC1 [Example 80, 1,1,1,3,3,3-Hexafluoropropan-2-yl 1-(2-chloro-3-(piperidin-1-yl)benzyl)-1,8-diazaspiro[4.5]decane-8-carboxylate] | ### (### is ≥ 75%) | – | – |
| Cc1ccc(CN2CCCC23CCN(C(=O)OC(C(F)(F)F)C(F)(F)F)CC3)cc1C(F)(F)F [Example 180, 1,1,1,3,3,3-Hexafluoropropan-2-yl 1-(4-methyl-3-(trifluoromethyl)benzyl)-1,8-diazaspiro[4.5]decane-8-carboxylate] | ### (### is ≥ 75%) | – | – |
| CC(=O)NC1CCN(c2cc(Cl)ccc2CN2CCCC23CCN(C(=O)OC(C(F)(F)F)C(F)(F)F)CC3)CC1 [Example 104, 1,1,1,3,3,3-Hexafluoropropan-2-yl 1-(2-(4-acetamidopiperidin-1-yl)-4-chlorobenzyl)-1,8-diazaspiro[4.5]decane-8-carboxylate] | – | # (# is < 25%) | # (# is < 25%) |
| O=C(OC(C(F)(F)F)C(F)(F)F)N1CCC2(CCN(Cc3cccc(Cl)c3N3CCC(F)(F)CC3)C2)CC1 [Example 64, 1,1,1,3,3,3-Hexafluoropropan-2-yl 2-(3-chloro-2-(4,4-difluoropiperidin-1-yl)benzyl)-2,8-diazaspiro[4.5]decane-8-carboxylate] | – | # (# is < 25%) | # (# is < 25%) |
| N#Cc1ccc(CN2CCCC23CCN(C(=O)OC(C(F)(F)F)C(F)(F)F)CC3)c(N2CCC(C(=O)O)CC2)c1 [Example 249] | – | # (# is < 25%) | # (# is < 25%) |
| O=C(O)C1CCN(Cc2cc(Cl)cc(CN3CCCC34CCN(C(=O)OC(C(F)(F)F)C(F)(F)F)CC4)c2)CC1 [Example 194, 1-(3-Chloro-5-((8-(((1,1,1,3,3,3-hexafluoropropan-2-yl)oxy)carbonyl)-1,8-diazaspiro[4.5]decan-1-yl)methyl)benzyl)piperidine-4-carboxylic acid] | – | # (# is < 25%) | # (# is < 25%) |
| O=C(OC(C(F)(F)F)C(F)(F)F)N1CCC2(CCCN2Cc2ccc3c(c2)COC3)CC1 [Example 151, 1,1,1,3,3,3-Hexafluoropropan-2-yl 1-((1,3-dihydroisobenzofuran-5-yl)methyl)-1,8-diazaspiro[4.5]decane-8-carboxylate] | ### (### is ≥ 75%) | – | – |
| CN1CCN(c2c(Cl)cccc2CN2CC3(CCN(C(=O)OC(C(F)(F)F)C(F)(F)F)CC3)CC2(C)C)CC1 [Example 189, 1,1,1,3,3,3-Hexafluoropropan-2-yl 2-(3-chloro-2-(4-methylpiperazin-1-yl)benzyl)-3,3-dimethyl-2,8-diazaspiro[4.5]decane-8-carboxylate] | – | # (# is < 25%) | # (# is < 25%) |
| O=C(OC(C(F)(F)F)C(F)(F)F)N1CCC2(CCCN2Cc2cc(N3CCC(F)CC3)cc(C(F)(F)F)c2)CC1 [Example 45, 1,1,1,3,3,3-Hexafluoropropan-2-yl 1-(3-(4-fluoropiperidin-1-yl)-5-(trifluoromethyl)benzyl)-1,8-diazaspiro[4.5]decane-8-carboxylate] | – | # (# is < 25%) | # (# is < 25%) |

Next, values leading:

| MAGL % Inh 5 mg/kg (mouse) (MAGL) | FAAH % Inh 5 mg/kg (mouse) (FAAH) | ABHD6 % Inh 5 mg/kg (mouse) (ABHD6) | Compound |
| --- | --- | --- | --- |
| ### (### is ≥ 75%) | # (# is < 25%) | – | N#Cc1cc(CN2CCCC23CCN(C(=O)OC(C(F)(F)F)C(F)(F)F)CC3)cc(N2CCC(C(=O)O)CC2)c1 [Example 210] |
| ### (### is ≥ 75%) | # (# is < 25%) | – | O=C(OC(C(F)(F)F)C(F)(F)F)N1CCC2(CCN(Cc3ccc(Cl)cc3N3CCOCC3)C2)CC1 [Example 21, 1,1,1,3,3,3-Hexafluoropropan-2-yl 2-(4-chloro-2-morpholinobenzyl)-2,8-diazaspiro[4.5]decane-8-carboxylate] |
| ### (### is ≥ 75%) | – | – | O=C(O)C1CCN(c2cc(Cl)cc(CN3CCCC34CCN(C(=O)OC(C(F)(F)F)C(F)(F)F)CC4)c2)CC1 [Example 122, 1-(3-Chloro-5-((8-(((1,1,1,3,3,3-hexafluoropropan-2-yl)oxy)carbonyl)-1,8-diazaspiro[4.5]decan-1-yl)methyl)phenyl)piperidine-4-carboxylic acid] |
| ### (### is ≥ 75%) | # (# is < 25%) | – | CS(=O)(=O)N1CCc2cccc(CN3CCCC34CCN(C(=O)OC(C(F)(F)F)C(F)(F)F)CC4)c2C1 [Example 146, 1,1,1,3,3,3-Hexafluoropropan-2-yl 1-((2-methanesulfonyl-1,2,3,4-tetrahydroisoquinolin-8-yl)methyl)-1,8-diazaspiro[4.5]decane-8-carboxylate] |
| ### (### is ≥ 75%) | # (# is < 25%) | – | CCN1CCCc2cccc(CN3CCC4(CCN(C(=O)OC(C(F)(F)F)C(F)(F)F)CC4)C3)c21 [Example 71, 1,1,1,3,3,3-Hexafluoropropan-2-yl 2-((1-ethyl-1,2,3,4-tetrahydroquinolin-8-yl)methyl)-2,8-diazaspiro[4.5]decane-8-carboxylate] |
| – | # (# is < 25%) | # (# is < 25%) | CC1(C)CC2(CCN(C(=O)OC(C(F)(F)F)C(F)(F)F)CC2)CN1Cc1ccc(C(F)(F)F)cc1N1CCOCC1 [Example 51, 1,1,1,3,3,3-Hexafluoropropan-2-yl 3,3-dimethyl-2-(2-morpholino-4-(trifluoromethyl)benzyl)-2,8-diazaspiro[4.5]decane-8-carboxylate] |
| ### (### is ≥ 75%) | # (# is < 25%) | – | CCOc1cccc(CN2CCCC23CCN(C(=O)OC(C(F)(F)F)C(F)(F)F)CC3)c1 [Example 5, 1,1,1,3,3,3-Hexafluoropropan-2-yl 1-(3-ethoxybenzyl)-1,8-diazaspiro[4.5]decane-8-carboxylate] |
| – | # (# is < 25%) | # (# is < 25%) | O=C(OC(C(F)(F)F)C(F)(F)F)N1CCC2(CCN(Cc3ccc(Cl)cc3N3CC4COCC4C3)C2)CC1 (stereo not shown) [Example 25, 1,1,1,3,3,3-Hexafluoropropan-2-yl 2-(4-chloro-2-(tetrahydro-1H-furo[3,4-c]pyrrol-5(3H)-yl)benzyl)-2,8-diazaspiro[4.5]decane-8-carboxylate] |
| – | # (# is < 25%) | # (# is < 25%) | O=C(OC(C(F)(F)F)C(F)(F)F)N1CCC2(CCN(Cc3ccc(Cl)cc3N3CCCC3)C2)CC1 [Example 17, 1,1,1,3,3,3-Hexafluoropropan-2-yl 2-(4-chloro-2-(pyrrolidin-1-yl)benzyl)-2,8-diazaspiro[4.5]decane-8-carboxylate] |
| – | # (# is < 25%) | # (# is < 25%) | O=C(OC(C(F)(F)F)C(F)(F)F)N1CCC2(CCCN2Cc2ccc(C(F)(F)F)cc2N2CCCCC2)CC1 [Example 78, 1,1,1,3,3,3-Hexafluoropropan-2-yl 1-(2-(piperidin-1-yl)-4-(trifluoromethyl)benzyl)-1,8-diazaspiro[4.5]decane-8-carboxylate] |
| – | # (# is < 25%) | # (# is < 25%) | O=C(OC(C(F)(F)F)C(F)(F)F)N1CCC2(CCCN2Cc2ccc(C(F)(F)F)cc2N2CCC(F)(F)CC2)CC1 [Example 90, 1,1,1,3,3,3-Hexafluoropropan-2-yl 1-(2-(4,4-difluoropiperidin-1-yl)-4-(trifluoromethyl)benzyl)-1,8-diazaspiro[4.5]decane-8-carboxylate] |
| – | # (# is < 25%) | # (# is < 25%) | CC1(C(=O)O)CCCN(c2cc(C(F)(F)F)ccc2CN2CCC3(CCN(C(=O)OC(C(F)(F)F)C(F)(F)F)CC3)C2)C1 (stereo not shown) [Example 216] |
| – | # (# is < 25%) | # (# is < 25%) | O=C(OC(C(F)(F)F)C(F)(F)F)N1CCC2(CCCN2Cc2ccc(C(F)(F)F)cc2N2CCCC2)CC1 [Example 66, 1,1,1,3,3,3-Hexafluoropropan-2-yl 1-(2-(pyrrolidin-1-yl)-4-(trifluoromethyl)benzyl)-1,8-diazaspiro[4.5]decane-8-carboxylate] |
| – | # (# is < 25%) | # (# is < 25%) | O=C(O)[C@@H]1CCCN(c2cc(C(F)(F)F)ccc2CN2CCC3(CCN(C(=O)OC(C(F)(F)F)C(F)(F)F)CC3)C2)C1 [Example 211] |

From patent US10781211B2, “Spirocycle compounds and methods of making and using same” (Lundbeck La Jolla Research Center, Inc., priority 2016, dated 2020)
